Source: patent publication US6737383B1, “Herbicidal oxadiazolidines” (priority 1999, dated 2004)

Columns and labels:
[1] = test system: redroot pigweed; test: Test E redroot pigweed; type: in vivo, Amaranthus retroflexus; settings: Preemergence
[2] = test system: wild buckwheat; test: Test E wild buckwheat; type: in vivo, Polygonum convolvulus; settings: Preemergence
[3] = test system: purple nutsedge; test: Test C postemergence purple nutsedge; type: in vivo, Cyperus rotundus; settings: 0 to 100 scale, 0 no effect, 100 complete control
Method: (§1) Compounds evaluated in this test were formulated in a non-phytotoxic solvent mixture which included a surfactant and applied to plants that were grown for various periods of time before treatment (postemergence application). A mixture of sandy loam soil and greenhouse potting mix in a 60:40 ratio was used for the postemergence test.
(§2) Plantings of these crops and weed species were adjusted to produce plants of appropriate size for the postemergence test. All plant species were grown using normal greenhouse practices. Crop and weed species include arrowleaf sida (Sida rhombifolia), barnyardgrass (Echinochloa crus-galli), cocklebur (Xanthium strumarium), common ragweed (Ambrosia elatior), corn (Zea mays), cotton (Gossypium hirsutum), eastern black nightshade (Solanum ptycanthum), fall panicum (Panicum dichotomiflorum), field bindweed (Convolvulus arvensis), giant foxtail (Setaria faberii), hairy beggarticks (Bidens pilosa), ivyleaf morningglory (Ipomoea hederacea), johnsongrass (Sorghum halepense), ladysthumb smartweed (Polygonum persicaria), lambsquarters (Chenopodium album), large crabgrass (Digitaria sanguinalis), purple nutsedge (Cyperus rotundus), redroot pigweed (Amaranthus retroflexus), soybean (Glycine max), surinam grass (Brachiaria decumbens), velvetleaf (Abutilon theophrasti) and wild poinsettia (Euphorbia heterophylla).
(§3) Treated plants and untreated controls were maintained in a greenhouse for approximately 14, to 21 days, after which all treated plants were compared to untreated controls and visually evaluated. Plant response ratings, summarized in Table C, were based upon a 0 to 100 scale where 0 was no effect and 100 was complete control. A dash response (−) means no test result.

[4] = test system: spring wheat; test: Test E spring wheat; type: in vivo, Triticum aestivum; settings: Preemergence
[5] = test system: chickweed; test: Test E chickweed; type: in vivo, Stellaria media; settings: Postemergence
Method in brief: (§4)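 Postemergence: 60:40 sandy loam/greenhouse potting mix, 1- to 4-leaf stage. Formulation: solvent plus surfactant. Assessment: visual comparison with untreated controls at ~21–28 days.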

[6] = test system: common ragweed; test: Test C postemergence common ragweed; type: in vivo, Ambrosia elatior; settings: 0 to 100 scale, 0 no effect, 100 complete control
Method: as §1, §2, §3

[7] = test system: redroot pigweed; test: Test E redroot pigweed; type: in vivo, Amaranthus retroflexus; settings: Postemergence
Method in brief: as §4

[8] = test system: sugar beet; test: Test E sugar beet; type: in vivo, Beta vulgaris; settings: Preemergence
[9] = test system: annual bluegrass; test: Test E annual bluegrass; type: in vivo, Poa annua; settings: Preemergence
[10] = test system: deadnettle; test: Test E deadnettle; type: in vivo, Lamium amplexicaule; settings: Postemergence
Method in brief: as §4

[11] = test system: ivyleaf speedwell; test: Test E postemergence ivyleaf speedwell; type: in vivo, Veronica hederaefolia
Method: as §1, with “in the 1- to 4-leaf stage” for “grown for various periods of time before treatment”
Plantings of these crops and weed species were adjusted to produce plants of appropriate size for the postemergence test. All plant species were grown using normal greenhouse practices. Crop and weed species include annual bluegrass (Poa annua), blackgrass (Alopecurus myosuroides), black nightshade (Solanum nigra), chickweed (Stellaria media), common poppy (Papaver rhoeas), deadnettle (Lamium amplexicaule), downy brome (Bromus tectorum), field violet (Viola arvensis), galium (Galium aparine), green foxtail (Setaria viridis), Italian ryegrass (Lolium multiflorum), jointed goatgrass (Aegilops cylindrica), kochia (Kochia scoparia), lambsquarters (Chenopodium album), littleseed canarygrass (Phalaris minor), rape (Brassica napus), redroot pigweed (Amaranthus retroflexus), Russian thistle (Salsola kali), scentless chamomile (Matricaria inodora), spring barley (Hordeum vulgare), sugar beet (Beta vulgaris), sunflower (Helianthus annuus), ivyleaf speedwell (Veronica hederaefolia), spring wheat (Triticum aestivum), winter wheat (Triticum aestivum), wild buckwheat (Polygonum convolvulus), wild mustard (Sinapis arvensis), wild oat (Avena fatua), windgrass (Apera spica-venti) and winter barley (Hordeum vulgare).
Treated plants and untreated controls were maintained in a greenhouse for approximately 21 to 28 days, after which all treated plants were compared to untreated controls and visually evaluated. […] A dash response (-) means no test result.

[12] = test system: wild poinsettia; test: Test C postemergence wild poinsettia; type: in vivo, Euphorbia heterophylla; settings: 0 to 100 scale, 0 no effect, 100 complete control
Method: as §1, §2, §3

[13] = test system: redroot pigweed; test: Test C postemergence redroot pigweed; type: in vivo, Amaranthus retroflexus; settings: 0 to 100 scale, 0 no effect, 100 complete control
Method: as §1, §2, §3

[14] = test system: giant foxtail; test: Test C postemergence giant foxtail; type: in vivo, Setaria faberii; settings: 0 to 100 scale, 0 no effect, 100 complete control
Method in brief: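 Foliar postemergence treatment of greenhouse plants grown in 60:40 sandy loam:potting mix; compounds delivered in non-phytotoxic solvent with surfactant. Evaluation is visual, 0–100, after ~14–21 d.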

[15] = test system: velvetleaf; test: Test A velvetleaf; type: in vivo, Abutilon theophrasti; settings: 0 to 10 scale where 0 is no effect and 10 is complete control
Method in brief: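 Injury scored visually after about eleven greenhouse days against untreated plants, 0 = no effect, 10 = complete control. Compounds, formulated in surfactant-containing non-phytotoxic solvent, were applied as preemergence soil drench to sandy loam plantings and as postemergence runoff spray at the 1–2 leaf stage.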

[16] = Rate 62 g/ha, 0 to 100 scale, 0 no effect, 100 complete control
[17] = Rate 125 g/ha, 0 to 100 scale (0 no effect, 100 complete control)
[18] = Rate 250 g/ha, 0 to 100 scale (0 no effect, 100 complete control)
[19] = Rate 500 g/ha, 0 to 100 scale where 0 is no effect and 100 is complete control
[20] = Rate 500 g/ha, 0 to 100 scale, 0 no effect, 100 complete control

CCn1c(=O)on(C(=O)N(c2ccc(F)cc2)C(C)C)c1=O [Compound 107]
Plant response rating, Redroot pigweed [1, 16]: 100
Plant response rating, Redroot pigweed [1, 17]: 100
Plant response rating, Redroot pigweed ([1]; Rate 250 g/ha, 0 to 100 scale): 100
Plant response rating, Wild buckwheat [2, 16]: 60
Plant response rating, Wild buckwheat [2, 17]: 90
Plant response rating, Wild buckwheat ([2]; Rate 250 g/ha, 0 to 100 scale): 95
Plant response rating, Purple nutsedge ([3]; Rate 140 g/ha): 0
Plant response rating, Purple nutsedge ([3]; Rate 280 g/ha): 0
Plant response rating, Purple nutsedge ([3]; Rate 560 g/ha): 10
Plant response rating, Purple nutsedge ([3]; Rate 1120 g/ha): 10
Plant response rating, Spring Wheat [4, 16]: 60
Plant response rating, Spring Wheat [4, 17]: 75
Plant response rating, Spring Wheat ([4]; Rate 250 g/ha, 0 to 100 scale): 85
Plant response rating, Chickweed ([5]; Rate 62 g/ha, 0 to 100 scale): 10
Plant response rating, Chickweed ([5]; Rate 125 g/ha, 0 to 100 scale): 0
Plant response rating, Chickweed [5, 18]: 0
Plant response rating Common ragweed ([6]; Rate 140 g/ha): 0
Plant response rating Common ragweed ([6]; Rate 280 g/ha): 50
Plant response rating Common ragweed ([6]; Rate 560 g/ha): 50
Plant response rating Common ragweed ([6]; Rate 1120 g/ha): 50
Plant response rating, Redroot pigweed ([7]; Rate 62 g/ha, 0 to 100 scale): 20
Plant response rating, Redroot pigweed ([7]; Rate 125 g/ha, 0 to 100 scale): 10
Plant response rating, Redroot pigweed [7, 18]: 20
Plant response rating, Sugar beet [8, 16]: 70
Plant response rating, Sugar beet [8, 17]: 100
Plant response rating, Sugar beet ([8]; Rate 250 g/ha, 0 to 100 scale): 100
Plant response rating, Annual bluegras [9, 16]: 70
Plant response rating, Annual bluegras [9, 17]: 80
Plant response rating, Annual bluegras ([9]; Rate 250 g/ha, 0 to 100 scale): 85
Plant response rating, Deadnettle ([10]; Rate 62 g/ha, 0 to 100 scale): 0
Plant response rating, Deadnettle ([10]; Rate 125 g/ha, 0 to 100 scale): 5
Plant response rating, Deadnettle [10, 18]: 50
Plant response rating, Veronica hedera ([11]; Rate 62 g/ha, 0 to 100 scale): 10
Plant response rating, Veronica hedera ([11]; Rate 125 g/ha, 0 to 100 scale): 0
Plant response rating, Veronica hedera [11, 18]: 10
Plant response rating Wild poinsettia ([12]; Rate 140 g/ha): 0
Plant response rating Wild poinsettia ([12]; Rate 280 g/ha): 15
Plant response rating Wild poinsettia ([12]; Rate 560 g/ha): 40
Plant response rating Wild poinsettia ([12]; Rate 1120 g/ha): 80
Plant response rating, Redroot pigweed ([13]; Rate 280 g/ha): 75
Plant response rating, Redroot pigweed ([13]; Rate 560 g/ha): 80
Plant response rating, Redroot pigweed ([13]; Rate 1120 g/ha): 80
Plant response rating, Giant foxtail ([14]; Rate 280 g/ha): 70
Plant response rating, Giant foxtail ([14]; Rate 560 g/ha): 95
Plant response rating, Giant foxtail ([14]; Rate 1120 g/ha): 95

CCn1c(=O)on(C(=O)N(c2ccc(F)cc2F)C(C)C)c1=O [Compound 116]
Plant response rating, Redroot pigweed [1, 17]: 100
Plant response rating, Redroot pigweed ([1]; Rate 250 g/ha, 0 to 100 scale): 100
Plant response rating, Redroot pigweed [1, 19]: 100
Plant response rating, Wild buckwheat [2, 17]: 40
Plant response rating, Wild buckwheat ([2]; Rate 250 g/ha, 0 to 100 scale): 60
Plant response rating, Wild buckwheat [2, 19]: 95
Plant response rating, Purple nutsedge ([3]; Rate 140 g/ha): 0
Plant response rating, Purple nutsedge ([3]; Rate 280 g/ha): 0
Plant response rating, Purple nutsedge ([3]; Rate 560 g/ha): 10
Plant response rating, Purple nutsedge ([3]; Rate 1120 g/ha): 10
Plant response rating, Spring Wheat [4, 17]: 15
Plant response rating, Spring Wheat ([4]; Rate 250 g/ha, 0 to 100 scale): 80
Plant response rating, Spring Wheat [4, 19]: 100
Plant response rating, Chickweed ([5]; Rate 62 g/ha, 0 to 100 scale): 0
Plant response rating, Chickweed ([5]; Rate 125 g/ha, 0 to 100 scale): 0
Plant response rating, Chickweed [5, 18]: 20
Plant response rating, Chickweed [5, 20]: 50
Plant response rating Common ragweed ([6]; Rate 140 g/ha): 0
Plant response rating Common ragweed ([6]; Rate 280 g/ha): 0
Plant response rating Common ragweed ([6]; Rate 560 g/ha): 0
Plant response rating Common ragweed ([6]; Rate 1120 g/ha): 0
Plant response rating, Redroot pigweed ([7]; Rate 62 g/ha, 0 to 100 scale): 0
Plant response rating, Redroot pigweed ([7]; Rate 125 g/ha, 0 to 100 scale): 0
Plant response rating, Redroot pigweed [7, 18]: 0
Plant response rating, Redroot pigweed [7, 20]: 0
Plant response rating, Sugar beet [8, 17]: 50
Plant response rating, Sugar beet ([8]; Rate 250 g/ha, 0 to 100 scale): 85
Plant response rating, Sugar beet [8, 19]: 95
Plant response rating, Annual bluegras [9, 17]: 60
Plant response rating, Annual bluegras ([9]; Rate 250 g/ha, 0 to 100 scale): 85
Plant response rating, Annual bluegras [9, 19]: 100
Plant response rating, Deadnettle ([10]; Rate 62 g/ha, 0 to 100 scale): 0
Plant response rating, Deadnettle ([10]; Rate 125 g/ha, 0 to 100 scale): 0
Plant response rating, Deadnettle [10, 18]: 20
Plant response rating, Deadnettle [10, 20]: 50
Plant response rating, Veronica hedera ([11]; Rate 125 g/ha, 0 to 100 scale): 0
Plant response rating, Veronica hedera [11, 18]: 0
Plant response rating, Veronica hedera [11, 20]: 70
Plant response rating Wild poinsettia ([12]; Rate 140 g/ha): 0
Plant response rating Wild poinsettia ([12]; Rate 280 g/ha): 0
Plant response rating Wild poinsettia ([12]; Rate 560 g/ha): 0
Plant response rating, Redroot pigweed ([13]; Rate 140 g/ha): 0
Plant response rating, Redroot pigweed ([13]; Rate 280 g/ha): 0
Plant response rating, Redroot pigweed ([13]; Rate 560 g/ha): 0
Plant response rating, Redroot pigweed ([13]; Rate 1120 g/ha): 20
Plant response rating, Giant foxtail ([14]; Rate 280 g/ha): 60
Plant response rating, Giant foxtail ([14]; Rate 560 g/ha): 60
Plant response rating, Giant foxtail ([14]; Rate 1120 g/ha): 85

CCOC(=O)Cn1c(=O)on(C(=O)N(c2ccc(F)cc2)C(C)C)c1=O [Compound 128]
Plant response rating, Velvetleaf ([15]; Postemergence, Rate 1000 g/ha): 0
Plant response rating, Velvetleaf ([15]; Pre-emergence, Rate 2000 g/ha): 0

Cc1ccccc1Cn1c(=O)on(C(=O)N(c2ccc(Cl)cc2)C(C)C)c1=O [Compound 136]
Plant response rating, Velvetleaf ([15]; Postemergence, Rate 1000 g/ha): 2
Plant response rating, Velvetleaf ([15]; Pre-emergence, Rate 2000 g/ha): 0
